# Patent publication US12331051B2 (priority 2021, dated 2025)
# Assays:
# 5-HT1F = molecular target: T1, 5-HT1F (Homo sapiens, UniProt P30939); test: Functional assay (cAMP); type: cell-based
# T1 construct: expressed in transfected cells; host or cells: HEK-293
# T1 sequence (P30939 1-366): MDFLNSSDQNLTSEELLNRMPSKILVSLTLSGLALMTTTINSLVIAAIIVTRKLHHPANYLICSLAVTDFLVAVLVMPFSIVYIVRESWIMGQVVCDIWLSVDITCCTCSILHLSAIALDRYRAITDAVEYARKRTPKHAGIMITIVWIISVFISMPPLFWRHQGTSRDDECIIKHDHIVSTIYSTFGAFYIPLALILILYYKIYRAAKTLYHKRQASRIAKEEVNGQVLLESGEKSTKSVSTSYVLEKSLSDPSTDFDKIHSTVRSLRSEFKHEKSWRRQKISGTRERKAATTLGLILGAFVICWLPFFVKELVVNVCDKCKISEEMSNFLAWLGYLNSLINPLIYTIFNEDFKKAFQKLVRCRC
# Procedure: (§1) Neuro-receptor binding and functional effects of the “E559 polymorph” was examined by analyzing binding affinity [Ki (nM)], functional agonist activity [EC50 (nM)], and functional antagonist activity [IC50 (nM)] against a panel of key receptors in neurophysiological disorders. Binding and functional assays were performed at “E559 polymorph” concentrations of 0.0003, 0.003, 0.01, 0.03, 0.1, 0.3, 1, and 10 μM. In binding assays, cell membrane homogenates, expressing each receptor target, were incubated with the corresponding radio-ligand in absence or presence of several concentration of the “E559 polymorph” compound. The measurement of binding affinity of the “E559 polymorph” is represented in TABLE XIII by Ki (nM) which was calculated as percent inhibition of the binding of a radioactively labeled reference ligand at each receptor. In functional assays the HEK-293 cells expressing each receptor target were suspended in buffer and distribute in microplates and incubated for 30 minutes at room temperature or 37° C. in the presence of buffer alone (basal control), the reference agonist or antagonist, or the “E559 polymorph. Following incubation, the cells were lysed and the appropriate fluorescent probe (Ca2+ flux, cAMP, or IP1) were added for 60 minutes to measure the fluorescence transfer at the appropriate wavelength using a microplate reader. The cellular agonist effect (EC50) was calculated as a percent of control response to a known reference agonist and the cellular antagonist effect (IC50) was calculated as a percent inhibition of control reference agonist response for each receptor.
# The functional agonist activity [EC50 (nM), Emax], and functional antagonist activity [IC50 (nM)] of the 5R:8S stereoisomer of the “E559 polymorph” (5R:8S E558) was compared with the “E559 polymorph” (a 5R:8R stereoisomer) at selected serotonin receptors. The assays were performed as described in Example 6.
# stress naive mice = test: Open field test (OFT), stress naive mice; type: in vivo, mouse
# Procedure: In brief, stress naive mice were treated (IP injection) with either saline (control) or single dose of the “E559 polymorph” at 0.3, 1, or 3 mg/kg dose levels and were evaluated 24 hours (OFT) and […] after treatment. The OFT was performed described in Example 13. The FST was performed as previously described in (Aguilar-Valles et al., Nature, 2021, 590, p315-319). Briefly FST was performed 24-hour post treatment by placing the mice (one by one) in a 4-liter wide-mouthed flask of 35° C. water. Mice activities were recorded for 6 minutes and assessed for total time the animal remains immobile, a sign of depressive-like behavior. FIG. 25A depicts the study design where female/male mice (n=10/group/sex) were treated by IP injection with the “E559 polymorph” or vehicle (saline) followed by open field and force swim test 24 hours post treatment. FIGS. 25B and 25E represent the total distance travelled in the open field test 24 hours after vehicle or the “E559 polymorph” in female and male mice, respectively. FIGS. 25C and 25F represent the time in the center of the open field by female and male mice, respectively. FIGS. 25D and 25G represent the immobility time during the last 4 minutes of the forced swim test in female and male mice, respectively. Horizontal lines represent the mean±standard error of the mean (S.E.M.) and asterisks indicate statistical significances.
# [1] = molecular target: ADRa1B (α1B adrenergic receptor) (Homo sapiens, UniProt P35368); test: BRET-based G protein dissociation assay; type: cell-based
# ADRa1B (α1B adrenergic receptor), sequence (P35368 whole entry): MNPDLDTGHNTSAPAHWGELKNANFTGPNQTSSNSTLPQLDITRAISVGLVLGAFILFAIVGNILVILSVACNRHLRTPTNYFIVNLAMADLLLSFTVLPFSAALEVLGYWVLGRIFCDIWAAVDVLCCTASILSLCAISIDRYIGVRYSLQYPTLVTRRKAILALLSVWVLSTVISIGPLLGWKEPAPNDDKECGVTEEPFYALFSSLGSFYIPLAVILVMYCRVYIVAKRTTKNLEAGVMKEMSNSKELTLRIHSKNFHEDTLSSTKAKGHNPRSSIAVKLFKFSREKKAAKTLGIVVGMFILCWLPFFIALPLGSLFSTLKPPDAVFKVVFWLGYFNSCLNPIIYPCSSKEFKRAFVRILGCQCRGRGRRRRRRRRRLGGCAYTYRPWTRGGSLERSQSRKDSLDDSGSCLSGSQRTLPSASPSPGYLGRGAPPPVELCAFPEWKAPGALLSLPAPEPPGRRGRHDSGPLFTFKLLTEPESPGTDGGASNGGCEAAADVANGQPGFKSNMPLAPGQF
# [2] = molecular target: ADRb2 (β2 adrenergic receptor) (Homo sapiens, UniProt P07550); test: BRET-based G protein dissociation assay; type: cell-based
# ADRb2 (β2 adrenergic receptor), sequence (P07550 whole entry): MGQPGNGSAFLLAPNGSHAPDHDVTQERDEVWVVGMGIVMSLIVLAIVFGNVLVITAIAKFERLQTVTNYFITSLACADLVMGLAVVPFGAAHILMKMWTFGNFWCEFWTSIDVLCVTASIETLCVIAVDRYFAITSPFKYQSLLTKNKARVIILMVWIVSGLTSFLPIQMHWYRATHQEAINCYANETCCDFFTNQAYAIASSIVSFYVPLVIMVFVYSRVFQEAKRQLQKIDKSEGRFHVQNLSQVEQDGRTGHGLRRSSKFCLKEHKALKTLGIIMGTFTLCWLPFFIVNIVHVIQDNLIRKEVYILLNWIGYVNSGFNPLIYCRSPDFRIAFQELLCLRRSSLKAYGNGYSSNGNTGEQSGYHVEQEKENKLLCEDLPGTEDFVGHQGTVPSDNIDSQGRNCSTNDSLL
# [3] = molecular target: T2, Serotonin 1A receptor (5-HT1AR) (Homo sapiens, UniProt P08908); test: Radioligand binding, cell membrane homogenates
# T2 construct: expressed in transfected cells; host or cells: HEK-293
# T2 sequence (P08908 1-422): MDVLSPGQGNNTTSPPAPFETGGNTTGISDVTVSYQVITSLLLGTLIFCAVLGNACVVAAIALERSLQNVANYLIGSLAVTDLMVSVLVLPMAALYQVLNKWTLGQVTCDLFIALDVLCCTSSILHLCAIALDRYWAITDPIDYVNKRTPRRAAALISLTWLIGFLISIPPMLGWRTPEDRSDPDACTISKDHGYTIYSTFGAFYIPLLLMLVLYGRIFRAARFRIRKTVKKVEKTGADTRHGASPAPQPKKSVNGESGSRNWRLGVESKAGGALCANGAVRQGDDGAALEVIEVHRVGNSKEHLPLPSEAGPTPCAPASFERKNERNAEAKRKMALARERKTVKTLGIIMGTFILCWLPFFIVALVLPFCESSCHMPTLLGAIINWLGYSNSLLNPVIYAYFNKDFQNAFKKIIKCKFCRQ
# Procedure: as §1
# [4] = molecular target: T3, Serotonin 2B receptor (5-HT2BR) (Homo sapiens, UniProt P41595); test: Radioligand binding, cell membrane homogenates
# T3 construct: expressed in transfected cells; host or cells: HEK-293
# T3 sequence (P41595 whole entry): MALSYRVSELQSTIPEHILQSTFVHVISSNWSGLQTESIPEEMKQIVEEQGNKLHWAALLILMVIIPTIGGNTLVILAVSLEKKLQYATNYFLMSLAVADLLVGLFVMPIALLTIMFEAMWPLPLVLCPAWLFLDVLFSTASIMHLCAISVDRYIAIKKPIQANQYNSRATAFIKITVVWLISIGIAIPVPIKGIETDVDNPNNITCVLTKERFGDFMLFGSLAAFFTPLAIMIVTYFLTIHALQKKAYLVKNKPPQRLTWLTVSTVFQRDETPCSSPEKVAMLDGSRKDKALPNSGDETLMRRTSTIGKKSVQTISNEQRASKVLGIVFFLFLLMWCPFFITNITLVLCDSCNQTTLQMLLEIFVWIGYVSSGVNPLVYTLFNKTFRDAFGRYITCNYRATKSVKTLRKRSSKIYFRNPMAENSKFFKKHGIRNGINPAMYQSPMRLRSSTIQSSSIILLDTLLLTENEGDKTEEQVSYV
# Procedure: as §1
# D2S dopamine receptor = molecular target: T4, D2S dopamine receptor (Homo sapiens, UniProt P14416); test: Radioligand binding, cell membrane homogenates
# T4 construct: expressed in transfected cells; host or cells: HEK-293
# T4 sequence (P14416 1-414 isoform P14416-2): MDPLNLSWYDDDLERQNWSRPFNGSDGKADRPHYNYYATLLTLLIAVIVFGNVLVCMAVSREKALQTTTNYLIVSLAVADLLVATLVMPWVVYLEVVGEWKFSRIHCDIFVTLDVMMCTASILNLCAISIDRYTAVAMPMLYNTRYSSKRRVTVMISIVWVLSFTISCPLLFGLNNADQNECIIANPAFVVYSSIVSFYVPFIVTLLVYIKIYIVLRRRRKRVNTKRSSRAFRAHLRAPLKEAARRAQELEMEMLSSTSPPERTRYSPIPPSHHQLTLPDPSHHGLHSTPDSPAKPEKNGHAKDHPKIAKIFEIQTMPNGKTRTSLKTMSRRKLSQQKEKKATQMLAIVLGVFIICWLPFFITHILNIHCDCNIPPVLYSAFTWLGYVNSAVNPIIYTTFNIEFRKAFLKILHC
# Procedure: as §1
# [5] = molecular target: H3 histaminergic receptor (Homo sapiens, UniProt Q9Y5N1); test: BRET-based G protein dissociation assay; type: cell-based; settings: percentage of the reference ligand-induced maximal response
# H3 histaminergic receptor, sequence (Q9Y5N1 whole entry): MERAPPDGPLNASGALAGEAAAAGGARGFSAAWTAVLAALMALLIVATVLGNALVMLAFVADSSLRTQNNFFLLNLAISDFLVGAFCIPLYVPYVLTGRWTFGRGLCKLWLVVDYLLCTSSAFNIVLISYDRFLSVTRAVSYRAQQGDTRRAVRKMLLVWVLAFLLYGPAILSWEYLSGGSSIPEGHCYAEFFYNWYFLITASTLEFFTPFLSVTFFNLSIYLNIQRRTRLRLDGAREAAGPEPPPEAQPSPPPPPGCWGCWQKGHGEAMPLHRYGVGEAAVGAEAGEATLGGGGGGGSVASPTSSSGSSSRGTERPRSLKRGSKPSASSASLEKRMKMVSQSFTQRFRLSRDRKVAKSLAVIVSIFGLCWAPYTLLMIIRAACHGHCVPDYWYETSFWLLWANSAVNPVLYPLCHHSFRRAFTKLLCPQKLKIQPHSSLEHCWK
Structure (SMILES),EC50 (5-HT1F),"Emax (5-HT1F; cAMP, ligand 5-HT, read-out: Functional Assay (agonist) Emax)","increase in exploration of the arena center (time in center), maximal effect (stress naive mice; female mice, IP 1 mg/kg, 24 hours after treatment)","exploration of the arena center (stress naive mice; female mice, IP 1 and 3 mg/kg, 24 hours after treatment)","increased exploration of the stressogenic area of the open field (stress naive mice; male mice, IP 0.3, 1 or 3 mg/kg)",Kb [1],EC50 [2],Kb [2],Ki [3],Ki [4],Ki (D2S dopamine receptor),Emax [5]
"CCN(CC)C(=O)[C@@H]1C=C2c3cccc4[nH]c(Br)c(c34)C[C@H]2N(C)C1 [E559, (5R, 8R)-2-Bromo-9,10-didehydro-N,N-diethyl-6-methylergoline-8-carboxamide hemi-D-tartrate]",13.8 nM,92.6%,88.18 ± 18.89 s,increased exploration of the arena center,not evident in male mice,55.9 nM,4.26 nM,17.6 nM,9.3 nM,7 nM,2.1 nM,
"CCN(CC)C(=O)[C@@H]1C=C2c3cccc4[nH]cc(c34)C[C@H]2N(C)C1 [LSD, lysergic acid diethylamide, reference compound]",,,,,,,,,,,,18.6%
